From patent publication US11739083B2, “Disposable sensor chip with reagent including 2-substituted benzothiazolyl-3-substituted phenyl-5-substituted sulfonated phenyl-2H-tetrazolium salt” (TERUMO KABUSHIKI KAISHA, priority 2016, dated 2023)

Tests used:
[1] = Evaluation Example 3: estimation of molar extinction coefficient; type: physicochemical; settings: colored chelate compound of formazan and Ni2+ at λmax=635 nm; FIG. 18
Procedure: A measurement solution was produced in the same manner as described in the section for the evaluation of the chelation rate and the maximum absorption wavelength (λmax), using the tetrazolium compound 1 of Example 1.
Estimation of the molar extinction coefficient was carried out using the blood glucose meter sensor of FIG. 13. At this time, it is assumed that tetrazolium compound 1 reacts with glucose at a ratio of 1:1 (molar ratio). The concentration (mol/L) of β-glucose include in the spotted aqueous glucose solution was designated as x, and the value obtained by calculating the absorbance at 630 nm of the blood glucose meter sensor having aqueous glucose solution spotted thereon, to a value per 1 cm, was designated as y. The gradient of a straight line obtained at that time is designated as the molar extinction coefficient (calculated based on a glucose molecular weight 180.16, and a β-glucose ratio in the solution of 62%).
FIG. 18 presents a graph obtained when the concentration (mol/L) of β-glucose was used as x value, and the absorbance at λmax=635 nm of colored chelate compound of formazan and Ni^2+, which was calculated into a value per 1 cm (abs/cm), was used as y value. From the graph, the molar extinction coefficient at λmax=635 nm of a colored chelate compound of formazan and Ni^2+ is ε=22,594 L/mol·cm.

[2] = Evaluation Example 1: evaluation as blood glucose meter sensor
Procedure: Separately, 100 μL of RO water was added to 7 mg of a glucose dehydrogenase (GDH-FAD) (manufactured by TOYOBO CO., LTD., product No.: GLD-351) to dissolve the enzyme, and thus a GDH solution was produced. Furthermore, 200 μL of RO water was added to 3.5 mg of 1-methoxy-5-methylphenazium methyl sulfate (m-PMS) (manufactured by DOJINDO LABORATORIES) to dissolve the compound, and thus an s-PMS solution was produced. 1 mL of RO water was added to 129 mg of nickel chloride to dissolve the salt, and thus a nickel solution was produced.
The coating liquid obtained as described above was applied on a PET film, and a reagent ribbon 1 was produced. The area of coating was 1.5 mm×75 mm (total coating amount 5.6 μL). This reagent ribbon 1 was cut in the longitudinal direction, and a reagent piece 2 was obtained (1.5 mm×3 mm).
Along the two edges of a PET film 5 that would become one surface of a blood glucose meter sensor, a double-sided tape having a thickness of […] was provided as a spacer. […]
A whole blood sample (Ht40, 100 mg/dL) (hematocrit value 40%, glucose concentration 100 mg/dL) was spotted at the flow channel inlet port of the blood glucose meter sensor thus produced. The whole blood sample (Ht40, 100 mg/dL) was produced as follows: whole blood was collected into a heparin-containing blood sampling tube, the hematocrit value of this whole blood was measured, and the hematocrit value of the whole blood sample was regulated to be Ht40 by adding the blood plasma obtained by separation in advance, or by removing the blood plasma of the whole blood sample, as appropriate. […] The specimen was spotted on the reagent part, and then after 9 seconds, the spectrum was measured using a fiber spectrophotometer. The absorbance at the maximum absorption wavelength was measured using the spectrum measured with each of the blood glucose meter sensors that used various compounds. The absorbance obtainable in the case of measuring the whole blood sample (Ht40, 100 mg/dL) was designated as AbsBG100. […]

In the case of COc1ccc2nc(-n3nc(-c4ccc(S(=O)(=O)O)cc4S(=O)(=O)[O-])n[n+]3-c3ccc(OC)c(S(=O)(=O)O)c3)sc2c1 [Example 1], the “molar extinction coefficient ε” value [1] was 22,594 L/mol·cm, the “time to completion of color development” value ([2]; whole blood and aqueous glucose solution, absorbance at 630 nm, FIG. 7) was 5 s and the absorbance ([2]; whole blood and aqueous glucose solutions, 9 seconds from initiation of reaction, FIG. 6) was “higher than 0.2”. The “color development (ΔAbs=AbsBG100−AbsBG0) relative to WST-4 (650 nm)” value ([2]; whole blood sample Ht40, 100 mg/dL, 9 seconds, FIG. 5) was “about 3 times”.
